Assays:
Assay type in all cases: cell-based
ERα = target: T1, ERα (Homo sapiens, UniProt P03372); experiment: Protein degradation assay: ERα in MCF-7 cells via western blot; settings: 6 h; for ERα Protein Degradation 1 nM: 1 nM compound; for ERα Protein Degradation 10 nM: 10 nM compound; for ERα Protein Degradation 100 nM: 100 nM compound
T1 construct: degrading an ERα in MCF-7 cells via a western blot; endogenous in cells; host or cells: MCF-7
T1 sequence (P03372 1-595): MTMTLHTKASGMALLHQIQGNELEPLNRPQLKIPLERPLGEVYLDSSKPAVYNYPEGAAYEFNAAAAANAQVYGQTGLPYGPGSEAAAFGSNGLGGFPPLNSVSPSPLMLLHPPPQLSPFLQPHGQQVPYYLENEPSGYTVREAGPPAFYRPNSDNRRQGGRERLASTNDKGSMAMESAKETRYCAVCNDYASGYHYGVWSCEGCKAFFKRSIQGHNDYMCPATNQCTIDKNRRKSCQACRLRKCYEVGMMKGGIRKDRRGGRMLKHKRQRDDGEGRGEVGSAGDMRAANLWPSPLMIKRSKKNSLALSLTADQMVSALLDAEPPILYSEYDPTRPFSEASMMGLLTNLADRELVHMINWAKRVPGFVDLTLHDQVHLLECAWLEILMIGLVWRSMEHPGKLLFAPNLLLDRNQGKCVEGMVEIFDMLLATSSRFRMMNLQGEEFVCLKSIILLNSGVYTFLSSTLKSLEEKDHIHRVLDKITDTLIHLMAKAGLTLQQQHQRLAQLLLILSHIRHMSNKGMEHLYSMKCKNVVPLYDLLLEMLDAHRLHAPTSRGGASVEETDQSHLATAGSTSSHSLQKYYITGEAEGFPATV
Protocol: A compound provided herein was assessed for its activity in degrading an ERα in MCF-7 cells via a western blot. The MCF7 cells were cultured at 37° C. in a humidified 5% C02 environment in MEM supplemented with 10% FBS with insulin. The cells were seeded in 12-well plates at a density of 300,000 cells per well in maintenance media. Cells were treated with the compound at predetermined concentrations (e.g., 1 nM, 10 nM, 100 nM, and 1 μM) for 6 h. The cells were then washed in PBS and the whole cells were lysed in a cell lysis buffer and incubated for 15 minutes on ice. Cell debris was removed by high-speed centrifugation and the cleared whole cell lysates were prepared for further analysis by a western blot. The whole cell protein extracts were separated on SDS-polyacrylamide gels, transferred to nitrocellulose membranes, and probed with primary antibodies, including anti-ERα antibody and GAPDH antibody for loading control. The membranes were subsequently washed and probed with secondary antibodies for chemiluminescence, followed by imaging on a BIORAD CHEMIDOC Imaging System. The results are summarized in Table 2, where “A” represents a percentage degradation value of no less than 50%; “B” represents a percentage degradation value of less than 50% and no less than 25%; “C” represents a percentage degradation value of less than 25% and no less than 10%; and “D” represents a percentage degradation value of less than 10%.

T47D cells = experiment: Cell viability assay ([…]-GLO, 6-day treatment); settings: Homo sapiens, 144 h, 6 days, CTG, read-out: Inhibition of Cancerous Cells IC50 T47D
Protocol: (§1) A compound provided herein was evaluated for its anticancer activity in MCF7 and T47D cells. MCF7 and T47D cells were cultured at 37° C. in a humidified 5% C02 environment in MEM or RPMI, supplemented with 10% FBS with insulin, respectively. The cells were plated in 384-well microplates at a density of 1,000 cells per well in their respective maintenance media. The cells were treated with the compound by a 10-point dose response curve for 6 days, during which, the medium and compound were refreshed once. After the 6-day treatment, the cell viability was assessed using […]-GLO (CTG) reagent. Luminescence was measured with a microplate reader.

MCF7 cells = experiment: Cell viability assay ([…]-GLO, 6-day treatment); settings: Homo sapiens, MCF7, 144 h; MCF-7 cells, 6 days, CTG; read-out: Inhibition of Cancerous Cells IC50 MCF-7
Protocol: as §1

Row | SMILES | ERα Protein Degradation 1 nM (ERα) | ERα Protein Degradation 10 nM (ERα) | ERα Protein Degradation 100 nM (ERα) | IC50 (T47D cells) | IC50 (MCF7 cells)
1 | O=C1CC[C@@H](N2Cc3cc(N4CCN(CC5CCN(c6ccc(C7c8ccc(O)cc8CC[C@@H]7c7ccccc7)cc6)CC5)CC4)ccc3C2=O)C(=O)N1 (stereo in doubt) [Compound A15, (R)-3-(5-(4-((1-(4-((1R,2S)-6-Hydroxy-2-phenyl-1,2,3,4-tetrahydronaphthalen-1-yl)phenyl)piperidin-4-yl)methyl)piperazin-1-yl)-1-oxoisoindolin-2-yl)piperidine-2,6-dione] | D (a percentage degradation value of less than 10%) | C (a percentage degradation value of less than 25% and no less than 10%) | D (a percentage degradation value of less than 10%) | 0.96 nM | 1.2 nM
2 | Cc1c(-c2ccc(O)cc2)n(Cc2ccc(OCCCCN3CCN(C(=O)COc4ccc5c(c4)CN(C4CCC(=O)NC4=O)C5=O)CC3)cc2)c2ccc(O)cc12 (centres unmarked) [Compound E3, 3-(5-(2-(4-(4-(4-((5-Hydroxy-2-(4-hydroxyphenyl)-3-methyl-1H-indol-1-yl)-methyl)phenoxy)butyl)piperazin-1-yl)-2-oxoethoxy)-1-oxoisoindolin-2-yl)piperidine-2,6-dione] | B (a percentage degradation value of less than 50% and no less than 25%) | B (a percentage degradation value of less than 50% and no less than 25%) | B (a percentage degradation value of less than 50% and no less than 25%) | 3.2 nM | 4.5 nM
3 | Cn1nc(C2CCC(=O)NC2=O)c2ccc(OCC(=O)N3CCN(CCCCOc4ccc([C@@H]5c6ccc(O)cc6CC[C@@H]5c5ccccc5)cc4)CC3)cc21 (stereo partly drawn) [Compound B2, 3-(6-(2-(4-(4-(4-((1R,2S)-6-hydroxy-2-phenyl-1,2,3,4-tetrahydronaphthalen-1-yl)phenoxy)butyl)piperazin-1-yl)-2-oxoethoxy)-1-methyl-1H-indazol-3-yl)piperidine-2,6-dione] | B (a percentage degradation value of less than 50% and no less than 25%) | B (a percentage degradation value of less than 50% and no less than 25%) | C (a percentage degradation value of less than 25% and no less than 10%) | 0.01 nM | 0.25 nM
4 | CC1(Cc2ccc(OCCCCN3CCN(C(=O)COc4cccc(C5CCC(=O)NC5=O)c4)CC3)cc2)C(c2ccc(O)cc2)=Nc2ccc(O)cc21 (centres unmarked) [Compound D7, 3-(3-(2-(4-(4-(4-((5-Hydroxy-2-(4-hydroxyphenyl)-3-methyl-3H-indol-3-yl)-methyl)phenoxy)butyl)piperazin-1-yl)-2-oxoethoxy)phenyl)piperidine-2,6-dione] | D (a percentage degradation value of less than 10%) | D (a percentage degradation value of less than 10%) | D (a percentage degradation value of less than 10%) | 44 nM | 101 nM
5 | Cn1nc(C2CCC(=O)NC2=O)c2cccc(OCC(=O)N3CCN(CCCCOc4ccc(CC5(C)C(c6ccc(O)cc6)=Nc6ccc(O)cc65)cc4)CC3)c21 (centres unmarked) [Compound D4, 3-(7-(2-(4-(4-(4-((5-hydroxy-2-(4-hydroxyphenyl)-3-methyl-3H-indol-3-yl)-methyl)phenoxy)butyl)piperazin-1-yl)-2-oxoethoxy)-1-methyl-1H-indazol-3-yl)piperidine-2,6-dione] | D (a percentage degradation value of less than 10%) | D (a percentage degradation value of less than 10%) | C (a percentage degradation value of less than 25% and no less than 10%) | 84 nM | –
6 | Cc1c(-c2ccc(O)cc2)n(Cc2ccc(OCCCCN3CCN(C(=O)COc4cccc5c(N6CCC(=O)NC6=O)nn(C)c45)CC3)cc2)c2ccc(O)cc12 [Compound D23, 1-(7-(2-(4-(4-(4-((5-hydroxy-2-(4-hydroxyphenyl)-3-methyl-1H-indol-1-yl)-methyl)phenoxy)butyl)piperazin-1-yl)-2-oxoethoxy)-1-methyl-1H-indazol-3-yl)dihydro-pyrimidine-2,4(1H,3H)-dione] | C (a percentage degradation value of less than 25% and no less than 10%) | C (a percentage degradation value of less than 25% and no less than 10%) | D (a percentage degradation value of less than 10%) | – | 1.7 nM
7 | Cn1nc(C2CCC(=O)NC2=O)c2ccc(N3CCN(CC4CCN(c5ccc([C@@H]6c7ccc(O)cc7CC[C@@H]6c6ccccc6)cc5)CC4)CC3)cc21 (stereo partly drawn) [Compound B25, 3-(6-(4-((1-(4-((1R,2S)-6-Hydroxy-2-phenyl-1,2,3,4-tetrahydronaphthalen-1-yl)-phenyl)piperidin-4-yl)methyl)piperazin-1-yl)-1-methyl-1H-indazol-3-yl)piperidine-2,6-dione] | C (a percentage degradation value of less than 25% and no less than 10%) | B (a percentage degradation value of less than 50% and no less than 25%) | D (a percentage degradation value of less than 10%) | – | 1.2 nM
8 | O=C1CCN(c2ccc(OCC(=O)N3CCN(CCCCOc4ccc([C@H]5c6ccc(O)cc6CC[C@H]5c5ccccc5)cc4)CC3)cc2)C(=O)N1 [Compound B45, 1-(4-(2-(4-(4-(4-((1S,2R)-6-Hydroxy-2-phenyl-1,2,3,4-tetrahydronaphthalen-1-yl)phenoxy)butyl)piperazin-1-yl)-2-oxoethoxy)phenyl)dihydropyrimidine-2,4(1H,3H)-dione] | C (a percentage degradation value of less than 25% and no less than 10%) | C (a percentage degradation value of less than 25% and no less than 10%) | C (a percentage degradation value of less than 25% and no less than 10%) | – | 88 nM
9 | Cc1c(-c2ccc(O)cc2)n(Cc2ccc(OCCCCN3CCN(C(=O)COc4cccc(N5CCC(=O)NC5=O)c4)CC3)cc2)c2ccc(O)cc12 [Compound E26, 1-(3-(2-(4-(4-(4-((5-Hydroxy-2-(4-hydroxyphenyl)-3-methyl-1H-indol-1-yl)-methyl)phenoxy)butyl)piperazin-1-yl)-2-oxoethoxy)phenyl)dihydropyrimidine-2,4(1H,3H)-dione] | D (a percentage degradation value of less than 10%) | D (a percentage degradation value of less than 10%) | D (a percentage degradation value of less than 10%) | – | 3.8 nM
10 | Cn1nc([C@@H]2CCC(=O)NC2=O)c2ccc(OCC(=O)N3CCN(CCCCOc4ccc([C@@H]5c6ccc(O)cc6CC[C@@H]5c5ccccc5)cc4)CC3)cc21 [Compound B23, (S)-3-(6-(2-(4-(4-(4-((1R,2S)-6-Hydroxy-2-phenyl-1,2,3,4-tetrahydronaphthalen-1-yl)phenoxy)butyl)piperazin-1-yl)-2-oxoethoxy)-1-methyl-1H-indazol-3-yl)piperidine-2,6-dione] | B (a percentage degradation value of less than 50% and no less than 25%) | B (a percentage degradation value of less than 50% and no less than 25%) | D (a percentage degradation value of less than 10%) | – | 0.22 nM

From US20240368121A1, “ESTROGEN RECEPTOR DEGRADERS, PHARMACEUTICAL COMPOSITIONS THEREOF, AND THEIR THERAPEUTIC APPLICATIONS” (BioTheryX, Inc., priority 2021, published 2024)
